Measured values reported in patent publication US20250114338A1, “TETRAHYDRO-PYRIDO[3,4-b]INDOLE ESTROGEN RECEPTOR MODULATORS AND USES THEREOF” (Genentech, Inc., priority 2014, published 2025).

test system: ER-alpha MCF7; test: ER-alpha MCF7 HCS EC50; stated as measured by in vitro cell proliferation assays of Examples 902 and 903; assay type: cell-based; settings: Homo sapiens, MCF7, MCF7 cells; Table 2
How it was run: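 MCF7 cells seeded 1000-2000 cells/well for 16 h, then treated with nine-point 1:2 DMSO dilution series in quadruplicate at 37 °C, 5% CO2 for 4 days. Viable cells quantified by CellTiter-Glo ATP luminescence; EC50 calculated. Controls: fulvestrant at final 100 nM, DMSO 0.2% v/v.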

Structure (SMILES)	EC50 [nM]
C[C@@H]1Cc2c([nH]c3ccccc23)[C@@H](c2c(F)cc(OC3CN(C[C@@H]4C[C@@H]4F)C3)cc2F)N1CC(C)(C)F [Example 282, (1R,3R)-1-(2,6-difluoro-4-((1-(((1S,2S)-2-fluorocyclopropyl)methyl)azetidin-3-yl)oxy)phenyl)-2-(2-fluoro-2-methylpropyl)-3-methyl-2,3,4,9-tetrahydro-1H-pyrido[3,4-b]indole]	1
CC(=O)CN1[C@H](c2c(F)cc(OC3CN(CCCF)C3)cc2F)c2[nH]c3ccccc3c2C[C@H]1C [Example 283, 1-[(1R,3R)-1-[2,6-difluoro-4-[1-(3-fluoropropyl)azetidin-3-yl]oxy-phenyl]-3-methyl-1,3,4,9-tetrahydropyrido[3,4-b]indol-2-yl]propan-2-one]	1
C[C@@H]1Cc2c([nH]c3ccccc23)[C@@H](c2c(F)cc(OC3CN(CCCF)C3)cc2F)N1CC(C)(C)CO [Example 284, 3-[(1R,3R)-1-[2,6-difluoro-4-[1-(3-fluoropropyl)azetidin-3-yl]oxy-phenyl]-3-methyl-1,3,4,9-tetrahydropyrido[3,4-b]indol-2-yl]-2,2-dimethyl-propan-1-ol]	0.382
C[C@@H]1Cc2c([nH]c3ccccc23)[C@@H](c2ccc(NC3CN(CCCF)C3)cc2F)N1C[C@](C)(F)CO [Example 291, (S)-2-fluoro-3-((1R,3R)-1-(2-fluoro-4-((1-(3-fluoropropyl)azetidin-3-yl)amino)phenyl)-3-methyl-1,3,4,9-tetrahydro-2H-pyrido[3,4-b]indol-2-yl)-2-methylpropan-1-ol]	0.13
C[C@@H]1Cc2c([nH]c3ccccc23)[C@@H](c2c(F)cc(NCCN3CC(CF)C3)cc2F)N1CC(F)(F)F [Example 296, 3,5-difluoro-N-(2-(3-(fluoromethyl)azetidin-1-yl)ethyl)-4-((1R,3R)-3-methyl-2-(2,2,2-trifluoroethyl)-2,3,4,9-tetrahydro-1H-pyrido[3,4-b]indol-1-yl)aniline]	0.2
C[C@H](CN1[C@H](c2c(F)cc(OCCN3CC(CF)C3)cc2F)c2[nH]c3ccccc3c2C[C@H]1C)C(=O)N(C)C [Example 298, (R)-3-((1R,3R)-1-(2,6-difluoro-4-(2-(3-(fluoromethyl)azetidin-1-yl)ethoxy)phenyl)-3-methyl-1,3,4,9-tetrahydro-2H-pyrido[3,4-b]indol-2-yl)-N,N,2-trimethylpropanamide]	5
C[C@@H]1Cc2c([nH]c3ccccc23)[C@@H](c2c(F)cc(OCCN3CC(CF)C3)cc2F)N1C[C@H](C)C(=O)O [Example 299, (S)-3-((1R,3R)-1-(2,6-difluoro-4-(2-(3-(fluoromethyl)azetidin-1-yl)ethoxy)phenyl)-3-methyl-1,3,4,9-tetrahydro-2H-pyrido[3,4-b]indol-2-yl)-2-methylpropanoic acid]	3
C[C@@H]1Cc2c([nH]c3ccccc23)[C@@H](c2c(F)cc(OCCN3CC(CF)C3)cc2F)N1CC(F)F [Example 305, (1R,3R)-2-(2,2-difluoroethyl)-1-[2,6-difluoro-4-[2-[3-(fluoromethyl)azetidin-1-yl]ethoxy]phenyl]-3-methyl-1,3,4,9-tetrahydropyrido[3,4-b]indole]	0.216
C[C@@H]1Cc2c([nH]c3ccccc23)[C@H](c2c(F)cc(OCCN3CC(CF)C3)cc2F)N1CC(F)F [Example 306, (1S,3R)-2-(2,2-difluoroethyl)-1-[2,6-difluoro-4-[2-[3-(fluoromethyl)azetidin-1-yl]ethoxy]phenyl]-3-methyl-1,3,4,9-tetrahydropyrido[3,4-b]indole]	3
C[C@@H]1Cc2c([nH]c3ccccc23)[C@@H](c2c(F)cc(OC3CN(C4CC(F)(F)C4)C3)cc2F)N1CC(C)(C)F [Example 307, (1R,3R)-1-[4-[1-(3,3-difluorocyclobutyl)azetidin-3-yl]oxy-2,6-difluoro-phenyl]-2-(2-fluoro-2-methyl-propyl)-3-methyl-1,3,4,9-tetrahydropyrido[3,4-b]indole]	0.193

Continued by falling EC50, values first:

EC50 [nM]	Structure (SMILES)
21	CC(=O)CN1[C@@H](c2c(F)cc(OC3CN(CCCF)C3)cc2F)c2[nH]c3ccccc3c2C[C@H]1C [Example 295, 1-((1S,3R)-1-(2,6-difluoro-4-((1-(3-fluoropropyl)azetidin-3-yl)oxy)phenyl)-3-methyl-1,3,4,9-tetrahydro-2H-pyrido[3,4-b]indol-2-yl)propan-2-one]
18	C[C@@H]1Cc2c([nH]c3ccccc23)[C@@H](c2c(F)cc(OCCN3CC(CF)C3)cc2F)N1C[C@H](C)C(=O)N(C)C [Example 297, (S)-3-((1R,3R)-1-(2,6-difluoro-4-(2-(3-(fluoromethyl)azetidin-1-yl)ethoxy)phenyl)-3-methyl-1,3,4,9-tetrahydro-2H-pyrido[3,4-b]indol-2-yl)-N,N,2-trimethylpropanamide]
2	CCS(=O)(=O)N1[C@H](c2c(F)cc(OC3CN(CCCF)C3)cc2F)c2[nH]c3ccccc3c2C[C@H]1C [Example 285, (1R,3R)-1-[2,6-difluoro-4-[1-(3-fluoropropyl)azetidin-3-yl]oxy-phenyl]-2-ethylsulfonyl-3-methyl-1,3,4,9-tetrahydropyrido[3,4-b]indole]
2	C[C@@H]1Cc2c([nH]c3ccccc23)[C@@H](c2ccc(NC3CN(CCCF)C3)cc2)N1C[C@@](C)(F)CO [Example 292, (R)-2-fluoro-3-((1R,3R)-1-(4-((1-(3-fluoropropyl)azetidin-3-yl)amino)phenyl)-3-methyl-1,3,4,9-tetrahydro-2H-pyrido[3,4-b]indol-2-yl)-2-methylpropan-1-ol]
1	C[C@@H]1Cc2c([nH]c3ccccc23)[C@@H](c2c(F)cc(OCCN3CC(CF)C3)cc2F)N1CC(C)(C)CO [Example 287, 3-[(1R,3R)-1-[2,6-difluoro-4-[2-[3-(fluoromethyl)azetidin-1-yl]ethoxy]phenyl]-3-methyl-1,3,4,9-tetrahydropyrido[3,4-b]indol-2-yl]-2,2-dimethyl-propan-1-ol]
1	C[C@H](CN1[C@H](c2c(F)cc(OCCN3CC(CF)C3)cc2F)c2[nH]c3ccccc3c2C[C@H]1C)C(=O)O [Example 300, (R)-3-((1R,3R)-1-(2,6-difluoro-4-(2-(3-(fluoromethyl)azetidin-1-yl)ethoxy)phenyl)-3-methyl-1,3,4,9-tetrahydro-2H-pyrido[3,4-b]indol-2-yl)-2-methylpropanoic acid]
0.497	C[C@@H]1Cc2c([nH]c3ccccc23)[C@@H](c2ccc(NC3CN(CCCF)C3)cc2F)N1C[C@@](C)(F)CO [Example 290, (R)-2-fluoro-3-((1R,3R)-1-(2-fluoro-4-((1-(3-fluoropropyl)azetidin-3-yl)amino)phenyl)-3-methyl-1,3,4,9-tetrahydro-2H-pyrido[3,4-b]indol-2-yl)-2-methylpropan-1-ol]
0.224	C[C@@H]1Cc2c([nH]c3ccccc23)[C@@H](c2c(F)cc(NC3CN(CCCF)C3)cc2F)N1CC(F)(F)F [Example 304, N-(3,5-difluoro-4-((1R,3R)-3-methyl-2-(2,2,2-trifluoroethyl)-2,3,4,9-tetrahydro-1H-pyrido[3,4-b]indol-1-yl)phenyl)-1-(3-fluoropropyl)azetidin-3-amine]
0.199	C[C@@H]1Cc2c([nH]c3ccccc23)[C@@H](c2c(F)cc(NC3CN(CCCF)C3)cc2F)N1C[C@](C)(F)CO [Example 289, (S)-3-((1R,3R)-1-(2,6-difluoro-4-((1-(3-fluoropropyl)azetidin-3-yl)amino)phenyl)-3-methyl-1,3,4,9-tetrahydro-2H-pyrido[3,4-b]indol-2-yl)-2-fluoro-2-methylpropan-1-ol]
0.15	C[C@@H]1Cc2c([nH]c3ccccc23)[C@@H](c2ccc(NC3CN(CCCF)C3)cc2)N1C[C@](C)(F)CO [Example 293, (S)-2-fluoro-3-((1R,3R)-1-(4-((1-(3-fluoropropyl)azetidin-3-yl)amino)phenyl)-3-methyl-1,3,4,9-tetrahydro-2H-pyrido[3,4-b]indol-2-yl)-2-methylpropan-1-ol]
0.12	C[C@@H]1Cc2c([nH]c3ccccc23)[C@@H](c2c(F)cc(OC3CN(CCCF)C3)cc2F)N1CC(F)(F)CO [Example 302, 3-((1R,3R)-1-(2,6-difluoro-4-((1-(3-fluoropropyl)azetidin-3-yl)oxy)phenyl)-3-methyl-3,4-dihydro-1H-pyrido[3,4-b]indol-2(9H)-yl)-2,2-difluoropropan-1-ol]
0.0978	C[C@@H]1Cc2c([nH]c3ccccc23)[C@@H](c2c(F)cc(OCCN3CC(CF)C3)cc2F)N1CC(F)(F)CO [Example 286, 3-[(1R,3R)-1-[2,6-difluoro-4-[2-[3-(fluoromethyl)azetidin-1-yl]ethoxy]phenyl]-3-methyl-1,3,4,9-tetrahydropyrido[3,4-b]indol-2-yl]-2,2-difluoro-propan-1-ol]
0.0881	CC(C)(F)CN1[C@H](CF)Cc2c([nH]c3ccccc23)[C@H]1c1c(F)cc(OC2CN(CCCF)C2)cc1F [Example 301, (1R,3S)-1-(2,6-difluoro-4-((1-(3-fluoropropyl)azetidin-3-yl)oxy)phenyl)-2-(2-fluoro-2-methylpropyl)-3-(fluoromethyl)-2,3,4,9-tetrahydro-1H-pyrido[3,4-b]indole]
0.0528	C[C@@H]1Cc2c([nH]c3ccccc23)[C@@H](c2c(F)cc(NC3CN(CCCF)C3)cc2F)N1C[C@@](C)(F)CO [Example 288, (R)-3-((1R,3R)-1-(2,6-difluoro-4-((1-(3-fluoropropyl)azetidin-3-yl)amino)phenyl)-3-methyl-1,3,4,9-tetrahydro-2H-pyrido[3,4-b]indol-2-yl)-2-fluoro-2-methylpropan-1-ol]
0.0482	C[C@@H]1Cc2c([nH]c3ccccc23)[C@@H](c2c(F)cc(OC3CN(CCCF)C3)cc2F)N1CC(F)F [Example 303, (1R,3R)-2-(2,2-difluoroethyl)-1-[2,6-difluoro-4-[1-(3-fluoropropyl)azetidin-3-yl]oxy-phenyl]-3-methyl-1,3,4,9-tetrahydropyrido[3,4-b]indole]
